Patent EP3373009A1, “FLUORESCENT COMPOUNDS FOR THE DETECTION OF MALIGNANT MELANOMA” (Karlsruher Institut für Technologie, priority 2017, dated 2018)

What was measured:
HeLa cells = experiment: Cellular uptake of the MSF in 2D cell culture, evaluated by CLSM (Example 1), non-affected control cells; assay type: cell-based, human; conditions: 20 µM in DMF, 5 hrs
Procedure: (§1) Two-dimensional cell cultures were treated with the fluorescent compound (I-1) as the MSF, represented by the following formula: [drawing 22]
(§2) Diverse cell lines as well as primary skin cells such as U2OS, SHSY, A459, H4, Hek293, HepG2, HCT116, U251, MCF-7, Ratfib, HUVEC, Fibroblasts, and HeLa were treated with the MSF at a concentration of 20 µM in DMF (dimethylformamide) for 5 hrs and subsequently evaluated by means of CLSM (confocal laser scanning microscopy).
(§3) In addition, murine (MEB4) as well as human (SK-Mel28) malignant melanoma cells were treated with the MSF under the same conditions.
(§4) The experimental procedure was similar to that of Example 2, as described below.
(§5) The aforementioned cells were seeded in an ibidi® µ-slide 8 well in a density of 2x10^5/mL and cultured for two days to confluency, before being treated with the fluorescent compounds in a concentration of 20 µM in DMF (dimethylformamide). After an incubation time of 5 hrs, the adherent cell layers were washed three times with PBS (phosphate buffered saline) and the nuclei were stained with Hoechst 33342 (Invitrogen, 0.5 µg/mL, 20 min). During the microscopic studies (Leica TCS-SP-5, inverted microscope), the fluorescent compounds were excited using an Ar-laser at 488 nm. Excitation of the Hoechst dye was accomplished with an UV-Laser at 351 and 364 nm. […]

[1] = test system: human melanoma cells SK-Mel28; experiment: Cellular uptake of fluorescent compounds by CLSM with fluorescence quantification (Example 2, Fig. 3); assay type: cell-based; conditions: 20 µM in DMF, 5 hrs; for fluorescence signal: excitation 488 nm, background subtracted; for difference in the uptake between SK-Mel28 and HeLa cells: SK-Mel28 versus HeLa (negative control)
Procedure: The cellular uptake of the fluorescent compounds according to the present invention was studied by treatment of human melanoma cells SK-Mel28 and HeLa cells (human cervix carcinoma cell line as a negative control, common model cell line) and their investigation via CLSM (confocal laser scanning microscopy).
The aforementioned cells were seeded in an ibidi® µ-slide 8 well in a density of 2x10^5/mL and cultured for two days to confluency, before being treated with the fluorescent compounds in a concentration of 20 µM in DMF (dimethylformamide). After an incubation time of 5 hrs, the adherent cell layers were washed three times with PBS (phosphate buffered saline) and the nuclei were stained with Hoechst 33342 (Invitrogen, 0.5 µg/mL, 20 min). During the microscopic studies (Leica TCS-SP-5, inverted microscope), the fluorescent compounds were excited using an Ar-laser at 488 nm. Excitation of the Hoechst dye was accomplished with an UV-Laser at 351 and 364 nm. Due to the overlap of the emission spectra of both dyes, a sequential mode was chosen for recording the cell images.
The resulting cell images were analyzed in terms of fluorescence quantification at 488 nm excitation using the software imaged 1.50i (Wayne Rasband, National Institutes of Health, USA).
From each cell image, five cells were selected as regions of interest and the related fluorescence signals were quantified (mean value and standard deviation). Additionally, three cell-free regions were selected in each cell image as background and the resulting background signal from these regions was subtracted from the cell signal.

MEB4 cells = experiment: Cellular uptake of the MSF in 2D cell culture, evaluated by CLSM (Example 1); assay type: cell-based, murine; conditions: 20 µM in DMF, 5 hrs
Procedure: as §1, §2, §3, §4, §5

SMILES | fluorescence originating from the MSF in CLSM images (HeLa cells; HeLa cells, Fig. 1) | uptake by the cells (HeLa cells; HeLa non-affected cells) | fluorescence signal [1] | difference in the uptake between SK-Mel28 and HeLa cells [1] | fluorescence generated by the MSF in CLSM images (MEB4 cells; MEB4 cells, Fig. 2) | uptake by the cells (MEB4 cells; MEB4 malignant melanoma cells)
O=C(c1ccccc1-c1c2ccc(=O)cc-2oc2cc(O)ccc12)N1CCN(C(=O)C2(F)C#CCCCCC2)CC1 (stereo not shown) [I-1] | no fluorescence apparent | not significantly been taken up | high fluorescence signal | large difference in the uptake | can be recognized throughout the cytoplasm | effectively been taken up
O=C(c1ccc2[nH]ccc2c1)N1CCN(C(=O)c2ccccc2-c2c3ccc(=O)cc-3oc3cc(O)ccc23)CC1 [I-20] | – | – | slightly weaker fluorescence signals | significant differences in the uptake | – | –
O=C(c1ccc(OC2C#CCCCCC2)cc1)N1CCN(C(=O)c2ccccc2-c2c3ccc(=O)cc-3oc3cc(O)ccc23)CC1 (stereo not shown) [I-14] | – | – | slightly weaker fluorescence signals | significant differences in the uptake | – | –
O=C(c1ccccc1-c1c2ccc(=O)cc-2oc2cc(O)ccc12)N1CCN(C(=O)C23CC4CC(CC(C4)C2)C3)CC1 [I-18] | – | – | slightly weaker fluorescence signals | significant differences in the uptake | – | –
O=C(OCC1CSCC#CCO1)N1CCN(C(=O)c2ccccc2-c2c3ccc(=O)cc-3oc3cc(O)ccc23)CC1 (stereo not shown) [I-17] | – | – | slightly weaker fluorescence signals | significant differences in the uptake | – | –
O=C(NCCCCNC(=O)C1(F)C#CCCCCC1)c1ccc(-c2c3ccc(=O)cc-3oc3cc(O)ccc23)c(C(=O)O)c1 (stereo not shown) [I-25] | – | – | slightly weaker fluorescence signals | significant differences in the uptake | – | –
